Values of other authors as cited in patent publication US9463243B2, “Amorphous medicinal fine particles produced by pulsed laser ablation in liquid and the production method thereof” (IMRA AMERICA, INC., priority 2012, dated 2016).

- water solubility: water-insoluble
Structure (SMILES): COc1cc(/C=C/C(=O)CC(=O)/C=C/c2ccc(O)c(OC)c2)ccc1O [Curcumin, curcumin]
